Assay results as given in PubChem BioAssay (NCI).
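Results reflect a 48-hour exposure of cells in 96-well plates to compound at five concentrations. GI50 is the concentration that inhibits growth by half. At the TGI there is no net growth.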 Where a SMILES comes first, the peptide text is derived from it. [ ]: non-standard residue; d: D form. The star is where a group is joined. ξ: configuration not given here. 4Abz = Nc1ccc(C(=O)O)cc1; ξL = CC(C)CC(N)C(=O)O; NHOH = ON*

Experiments:
Test in all cases: NCI anticancer screen, dose series, 48 h; in the data active = GI50 below about 0.43 µM; inactive = the rest
SK-OV-3 ovarian = system: SK-OV-3 ovarian
HL-60(TB) leukemia = system: HL-60(TB) leukemia
HCT-15 colon = system: HCT-15 colon
OVCAR-4 ovarian = system: OVCAR-4 ovarian
EKVX NSCLC = system: EKVX NSCLC
PC-3 prostate = system: PC-3 prostate
MOLT-4 leukemia = system: MOLT-4 leukemia
NCI/ADR-RES ovarian = system: NCI/ADR-RES ovarian
HS 578T breast = system: HS 578T breast
CCRF-CEM leukemia = system: CCRF-CEM leukemia

O=C1/C=C(/c2ccc(O)cc2)[C@H](O)Cc2ccc(OC3OC(CO)C(O)C(O)C3O)cc2O1 (some centres undefined) (tested in a mixture with another compound)
> 100 µM: TGI (SK-OV-3 ovarian) | TGI (HL-60(TB) leukemia) | TGI (HCT-15 colon) | TGI (OVCAR-4 ovarian) | TGI (EKVX NSCLC)

NC(=O)c1ncn(C2CCC(CP(=O)(O)O)C2)c1N (centres undefined)
> 100 µM: TGI (SK-OV-3 ovarian) | TGI (PC-3 prostate) | TGI (HCT-15 colon) | TGI (MOLT-4 leukemia) | TGI (NCI/ADR-RES ovarian) | TGI (OVCAR-4 ovarian) | TGI (HS 578T breast) | TGI (EKVX NSCLC)

COC(=O)c1nc(N)[nH]c(=O)c1-c1ccc(Cl)cc1
> 100 µM: TGI (SK-OV-3 ovarian) | TGI (HL-60(TB) leukemia) | TGI (HCT-15 colon) | TGI (MOLT-4 leukemia) | TGI (CCRF-CEM leukemia) | TGI (OVCAR-4 ovarian) | TGI (EKVX NSCLC)

O=C1C=Cc2cc3ccccc3c3cccc1c23
18.6 µM: TGI (HCT-15 colon)
8.92 µM: TGI (EKVX NSCLC)
18.3 µM: TGI (CCRF-CEM leukemia)
19.2 µM: TGI (NCI/ADR-RES ovarian)
> 100 µM: TGI (SK-OV-3 ovarian) | TGI (MOLT-4 leukemia) | TGI (OVCAR-4 ovarian)
19.1 µM: TGI (PC-3 prostate)
inactive: GI50 (SK-OV-3 ovarian) 19.5 µM | GI50 (PC-3 prostate) 3.47 µM | GI50 (HCT-15 colon) 3.21 µM | GI50 (MOLT-4 leukemia) 5.03 µM | GI50 (CCRF-CEM leukemia) 4.35 µM | GI50 (NCI/ADR-RES ovarian) 3.33 µM | GI50 (OVCAR-4 ovarian) 14.5 µM | GI50 (HS 578T breast) 4.09 µM | GI50 (EKVX NSCLC) 2.55 µM
11.7 µM: TGI (HS 578T breast)

CCCCCCCCOCC(O)COC (centres undefined)
> 100 µM: TGI (SK-OV-3 ovarian) | TGI (HL-60(TB) leukemia) | TGI (HCT-15 colon) | TGI (MOLT-4 leukemia) | TGI (CCRF-CEM leukemia) | TGI (OVCAR-4 ovarian)

O=C(c1ccc(Cl)cc1)N(C(=S)N1CCN(c2ccccc2)CC1)C1CCCCC1
> 100 µM: TGI (SK-OV-3 ovarian) | TGI (HL-60(TB) leukemia) | TGI (HCT-15 colon) | TGI (MOLT-4 leukemia) | TGI (CCRF-CEM leukemia) | TGI (OVCAR-4 ovarian)

COc1ccc(/C=N\N2C(=O)Cc3ccccc32)cc1
> 100 µM: TGI (SK-OV-3 ovarian) | TGI (HL-60(TB) leukemia) | TGI (HCT-15 colon) | TGI (MOLT-4 leukemia) | TGI (CCRF-CEM leukemia) | TGI (OVCAR-4 ovarian) | TGI (EKVX NSCLC)

COc1cc(C2CC(c3ccc(C)cc3)=NN2C(C)=O)ccc1Oc1ccnc2cc(Cl)ccc12 (centres undefined)
inactive: GI50 (SK-OV-3 ovarian) 32.4 µM | GI50 (PC-3 prostate) > 100 µM | GI50 (HL-60(TB) leukemia) > 100 µM | GI50 (HCT-15 colon) > 100 µM | GI50 (MOLT-4 leukemia) > 100 µM | GI50 (CCRF-CEM leukemia) > 100 µM | GI50 (HS 578T breast) 2.6 µM | GI50 (EKVX NSCLC) > 100 µM
> 100 µM: TGI (SK-OV-3 ovarian) | TGI (PC-3 prostate) | TGI (HL-60(TB) leukemia) | TGI (HCT-15 colon) | TGI (MOLT-4 leukemia) | TGI (CCRF-CEM leukemia) | TGI (HS 578T breast) | TGI (EKVX NSCLC)

COC(=O)C1=C(O)C(C(=O)OC)[C@@]2(O)[C@@H](C(=O)OC)C(c3ccccc3C(F)(F)F)C[C@@H]1[C@@H]2C(=O)OC (some centres undefined)
24.7 µM: TGI (PC-3 prostate)
11.2 µM: TGI (CCRF-CEM leukemia)
7 µM: TGI (SK-OV-3 ovarian)
19.4 µM: TGI (EKVX NSCLC)
6.97 µM: TGI (MOLT-4 leukemia)
3.11 µM: TGI (HCT-15 colon)
inactive: GI50 (SK-OV-3 ovarian) 1.58 µM | GI50 (PC-3 prostate) 6.02 µM | GI50 (HCT-15 colon) 1.4 µM | GI50 (MOLT-4 leukemia) 1.88 µM | GI50 (CCRF-CEM leukemia) 2.13 µM | GI50 (NCI/ADR-RES ovarian) 3.78 µM | GI50 (HS 578T breast) 3.87 µM | GI50 (EKVX NSCLC) 6.36 µM
16.8 µM: TGI (NCI/ADR-RES ovarian)
> 100 µM: TGI (HS 578T breast)

COc1cc(C=C2C(=O)OC(C)(C)OC2=O)cc(OC)c1OC
> 100 µM: TGI (SK-OV-3 ovarian) | TGI (HL-60(TB) leukemia) | TGI (HCT-15 colon) | TGI (MOLT-4 leukemia) | TGI (CCRF-CEM leukemia) | TGI (OVCAR-4 ovarian) | TGI (EKVX NSCLC)

C=C1c2c(C)nn(-c3ccccc3)c2N(C)C23C[C@@H]1C1(C)c4c(C)nn(-c5ccccc5)c4N(C)C(C)(C[C@H]12)C3 (some centres undefined)
> 100 µM: TGI (PC-3 prostate) | TGI (HCT-15 colon) | TGI (NCI/ADR-RES ovarian) | TGI (OVCAR-4 ovarian)
21.8 µM: TGI (SK-OV-3 ovarian)
inactive: GI50 (SK-OV-3 ovarian) 4.64 µM | GI50 (PC-3 prostate) 0.979 µM | GI50 (HCT-15 colon) 3.67 µM | GI50 (NCI/ADR-RES ovarian) 6.04 µM | GI50 (OVCAR-4 ovarian) 4.49 µM | GI50 (HS 578T breast) 5.67 µM
80.1 µM: TGI (HS 578T breast)

COC(=O)c1ccc2n[se]nc2c1
> 100 µM: TGI (SK-OV-3 ovarian) | TGI (HL-60(TB) leukemia) | TGI (HCT-15 colon) | TGI (MOLT-4 leukemia) | TGI (CCRF-CEM leukemia) | TGI (OVCAR-4 ovarian) | TGI (EKVX NSCLC)

CCC(C)CNC1=C(NC(C)=O)C(=O)c2ccccc2C1=O (centres undefined)
> 100 µM: TGI (SK-OV-3 ovarian) | TGI (HL-60(TB) leukemia) | TGI (HCT-15 colon) | TGI (MOLT-4 leukemia) | TGI (CCRF-CEM leukemia) | TGI (OVCAR-4 ovarian) | TGI (EKVX NSCLC)

Cc1cc(C)c(-c2noc(-c3ccc(Cl)cc3)c2C2=NCCN2)c(C)c1
74.7 µM: TGI (CCRF-CEM leukemia)
> 100 µM: TGI (SK-OV-3 ovarian) | TGI (OVCAR-4 ovarian)
71.8 µM: TGI (EKVX NSCLC)
46.4 µM: TGI (HL-60(TB) leukemia)
41.3 µM: TGI (MOLT-4 leukemia)
57.4 µM: TGI (HCT-15 colon)

COc1ccc2c(c1)C(CCN)C(=O)N2 (centres undefined)
> 100 µM: TGI (SK-OV-3 ovarian) | TGI (HL-60(TB) leukemia) | TGI (HCT-15 colon) | TGI (MOLT-4 leukemia) | TGI (CCRF-CEM leukemia) | TGI (OVCAR-4 ovarian) | TGI (EKVX NSCLC)

CC(C)CC(NC(=O)[C@@H]1CCCN1C(=O)CNC(=O)c1ccc(N)cc1)C(=O)N[C@H](C)C(=O)NO (some centres undefined) (H-[4Abz]GP[ξL][dA]-{NHOH})
inactive: GI50 (SK-OV-3 ovarian) > 100 µM | GI50 (PC-3 prostate) > 100 µM | GI50 (HCT-15 colon) > 100 µM | GI50 (MOLT-4 leukemia) > 100 µM | GI50 (NCI/ADR-RES ovarian) > 100 µM | GI50 (OVCAR-4 ovarian) > 100 µM | GI50 (HS 578T breast) > 100 µM | GI50 (EKVX NSCLC) > 100 µM
> 100 µM: TGI (SK-OV-3 ovarian) | TGI (PC-3 prostate) | TGI (HCT-15 colon) | TGI (MOLT-4 leukemia) | TGI (NCI/ADR-RES ovarian) | TGI (OVCAR-4 ovarian) | TGI (HS 578T breast) | TGI (EKVX NSCLC)

O=C(/C=C(\O)C(=O)O)/C=C(\O)c1ccc(Cl)cc1
> 100 µM: TGI (SK-OV-3 ovarian) | TGI (HL-60(TB) leukemia) | TGI (HCT-15 colon) | TGI (MOLT-4 leukemia) | TGI (CCRF-CEM leukemia) | TGI (OVCAR-4 ovarian) | TGI (EKVX NSCLC)

CC(=O)O/N=C1\C=Cc2c(no[n+]2[O-])C1=O
36.6 µM: TGI (MOLT-4 leukemia)
56.3 µM: TGI (HS 578T breast)
68.1 µM: TGI (NCI/ADR-RES ovarian)
31.5 µM: TGI (OVCAR-4 ovarian) | TGI (EKVX NSCLC)
17.6 µM: TGI (CCRF-CEM leukemia)
32.3 µM: TGI (PC-3 prostate)
36.4 µM: TGI (HCT-15 colon)

Cn1c(=O)c(C2c3ccccc3Oc3c2c(=O)n(C)c2ccccc32)c(O)c2ccccc21 (centres undefined)
79.2 µM: TGI (HL-60(TB) leukemia)
> 100 µM: TGI (SK-OV-3 ovarian) | TGI (HCT-15 colon) | TGI (MOLT-4 leukemia) | TGI (OVCAR-4 ovarian) | TGI (EKVX NSCLC)

CCOc1cccc2cccnc12
> 100 µM: TGI (SK-OV-3 ovarian) | TGI (HL-60(TB) leukemia) | TGI (MOLT-4 leukemia) | TGI (CCRF-CEM leukemia) | TGI (OVCAR-4 ovarian) | TGI (EKVX NSCLC)
